Assay results taken from article PMC5013292, “A Putative Bacterial ABC Transporter Circumvents the Essentiality of Signal Peptidase” (mBio, 2016).

Columns and labels:
[1] = system: Δmcr cro/cI(Q16stop) Δ(SAUSA300_0351-SAUSA300_0352-SAUSA300_0353) (GNE0220); experiment: MIC fold increase, GNE0220; type: cell-based, S. aureus
Method: (§1) MICs were determined according to the standard protocol from the Clinical and Laboratory Standards Institute ([23]). Briefly, S. aureus bacteria were harvested from regular MHA plates that had been cultured for ~20 h at 37°C. Serial dilutions of compound 103 were incubated with bacteria at approximately 10^6 CFU (CFU)/ml in MHB in round-bottom 96 well plates (Corning, Corning, NY) for 22 h at 37°C. MICs were determined by the lowest concentration of compound 103 showing absence of growth by visual inspection.
(§2) To generate mutations in SAUSA300_0351, _0352, and _0353 genes by homologous recombination, we transformed USA300 Δmcr using targeting constructs created in the vector pIMAY ([24]). To generate mutations in SAUSA300_0351, _0352, and _0353 genes in a cro/cI mutant background, we selected colonies from USA300 Δmcr cultured on plates containing fourfold the MIC of compound 103. Sequencing of PCR products of the cro/cI gene from resistant colonies yielded a clone with a Q16stop codon mutation in cro/cI (strain GNE0173). We further mutated SAUSA300_0351, _0352, and _0353 in this USA300 Δmcr cro/cI (Q16stop) clone to study the contributions of these three genes to cro/cI-mediated resistance.

[2] = system: SpsB Y30S mutant of USA300 Δmcr cro/cI(Q16stop) SAUSA300_0352(K44A); experiment: MIC fold increase, SpsB Y30S mutant; type: cell-based, S. aureus
Method: as §1

[3] = system: USA300 WT(pMK4) (GNE0163); experiment: MIC fold increase, GNE0163; type: cell-based, S. aureus
Method: as §1

[4] = system: Δmcr cro/cI(Q16stop) ΔSAUSA300_0353 (GNE0210); experiment: MIC fold increase, GNE0210; type: cell-based, S. aureus
Method: as §1, §2

[5] = system: Δmcr cro/cI(Q16stop) (GNE0173); experiment: MIC fold increase, GNE0173; type: cell-based, S. aureus
Method: as §1, §2

[6] = system: Δmcr cro/cI(Q16stop) SAUSA300_0352(K44A) (GNE0175); experiment: MIC fold increase, GNE0175; type: cell-based, S. aureus
Method: as §1, §2

[7] = system: SpsB Y30N mutant of USA300 Δmcr cro/cI(Q16stop) SAUSA300_0352(K44A); experiment: MIC fold increase, SpsB Y30N mutant; type: cell-based, S. aureus
Method: as §1

[8] = biological target: T1, full length recombinant SpsB (Staphylococcus aureus, UniProt P0A070); experiment: Enzymatic activity of recombinant SpsB; type: biochemical, S. aureus; conditions: result in words; Fig. S1C
T1 construct: 500 pM full length recombinant SpsB from S. aureus
Method: White 384-well low-volume polypropylene assay plates (Thermo Scientific, Waltham, MA) were pre-spotted with 25 nL per well of compound 103, serially diluted in DMSO, using an Echo instrument (Labcyte, Sunnyvale, CA). A 10 µL reaction in PBS (pH 7.4) containing 0.1% Triton X-100 was then initiated by adding 500 pM full length recombinant SpsB from S. aureus plus 10 µM fluorogenic peptide substrate Dabcyl-βAla-KPAKAAE-Edans (GL Biochem, Boston, MA). Substrate cleavage separates the Dabcyl quencher from the Edans fluorophore, resulting in 490nm fluorescence (340nm excitation). The reaction was read kinetically using an M-1000 plate reader (Tecan, Morrisville, NC), plotting the initial slope (rate) of fluorescence generation versus inhibitor concentration to derive IC50 values.

[9] = system: SpsB V167D mutant of USA300 Δmcr cro/cI(Q16stop) SAUSA300_0352(K44A); experiment: MIC fold increase, SpsB V167D mutant; type: cell-based, S. aureus
Method: as §1

T1 sequence (P0A070 whole entry): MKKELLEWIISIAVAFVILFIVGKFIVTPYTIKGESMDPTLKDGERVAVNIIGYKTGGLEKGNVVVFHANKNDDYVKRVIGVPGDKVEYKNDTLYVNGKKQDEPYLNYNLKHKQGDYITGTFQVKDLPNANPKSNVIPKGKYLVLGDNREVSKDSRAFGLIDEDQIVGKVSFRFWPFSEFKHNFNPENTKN

## CCCCc1ccc(-c2ccc(C(=O)N[C@@H](CCCCN)C(=O)N(C)[C@@H]3C(=O)N[C@@H](C)C(=O)N[C@H](C(=O)NCC(C)C(=O)O)Cc4ccc(O)c(c4)-c4cc3ccc4O)cc2)cc1 (stereo partly drawn) [Compound 103]
[1]; GNE0220
  MIC of compound 103 (fold increase versus MIC for USA300 WT): 2.0 fold
[1]; GNE0220, deletion of all 3 ABC transporter genes, result in words
  resistance phenotype: reversed the resistant phenotype
[2]
  MIC of compound 103 (fold increase versus MIC for USA300 WT): 4 fold
[3]
  MIC of compound 103 (fold increase versus MIC for USA300 WT): 1.0 fold
[4]; GNE0210
  MIC of compound 103 (fold increase versus MIC for USA300 WT): 1.0 fold
[4]; GNE0210, deletion of SAUSA300_0353, result in words
  resistance phenotype: reversed the resistant phenotype
[5]
  MIC of compound 103 (fold increase versus MIC for USA300 WT): >32 fold
[6]; GNE0175
  MIC of compound 103 (fold increase versus MIC for USA300 WT): 1.0 fold
[6]; GNE0175, SAUSA300_0352(K44A), result in words
  resistance phenotype: reversed the resistant phenotype
[7]
  MIC of compound 103 (fold increase versus MIC for USA300 WT): 4 fold
[8]
  inhibition of enzymatic activity of recombinant SpsB: dose dependently inhibited
[9]
  MIC of compound 103 (fold increase versus MIC for USA300 WT): 8 fold
